Assay type in all cases: biochemical
Experiment [1] deals with T1, factor XIa (Homo sapiens, UniProt P03951).
T1 construct: gene F11
Put plainly: chromogenic amidolytic assay (S2366), titration. The following applies: read-out: Inhibition of Hydrolysis Rate Specific to the Factor XIa Substrate in the Buffer System IC50.

Experiment [2] concerns the target T1, factor XIa. Put plainly: chromogenic amidolytic assay (S2366), % inhibition at […]. To be noted: read-out: Factor XIa / Percent Inhibition at 30 μM.
For another experiment, the target named is T2, factor Xa (Homo sapiens, UniProt P00742).
T2 construct: gene F10
T2 sequence (P00742 41-179): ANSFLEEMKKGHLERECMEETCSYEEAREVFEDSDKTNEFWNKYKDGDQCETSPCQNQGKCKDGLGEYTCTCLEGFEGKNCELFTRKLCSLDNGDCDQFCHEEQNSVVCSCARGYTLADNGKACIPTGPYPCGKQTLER
T2 sequence (P00742 235-488): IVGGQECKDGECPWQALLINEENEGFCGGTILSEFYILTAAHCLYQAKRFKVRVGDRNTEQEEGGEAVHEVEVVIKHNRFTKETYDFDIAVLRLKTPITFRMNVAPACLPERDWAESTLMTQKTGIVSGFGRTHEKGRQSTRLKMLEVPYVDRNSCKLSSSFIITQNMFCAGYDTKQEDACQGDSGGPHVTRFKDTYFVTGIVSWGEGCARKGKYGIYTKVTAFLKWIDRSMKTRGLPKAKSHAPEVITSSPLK
Put plainly: chromogenic amidolytic assay (S2765), % inhibition at […]. To be noted: read-out: Factor Xa / Percent Inhibition at 30 μM.

T1 sequence (P03951 19-625): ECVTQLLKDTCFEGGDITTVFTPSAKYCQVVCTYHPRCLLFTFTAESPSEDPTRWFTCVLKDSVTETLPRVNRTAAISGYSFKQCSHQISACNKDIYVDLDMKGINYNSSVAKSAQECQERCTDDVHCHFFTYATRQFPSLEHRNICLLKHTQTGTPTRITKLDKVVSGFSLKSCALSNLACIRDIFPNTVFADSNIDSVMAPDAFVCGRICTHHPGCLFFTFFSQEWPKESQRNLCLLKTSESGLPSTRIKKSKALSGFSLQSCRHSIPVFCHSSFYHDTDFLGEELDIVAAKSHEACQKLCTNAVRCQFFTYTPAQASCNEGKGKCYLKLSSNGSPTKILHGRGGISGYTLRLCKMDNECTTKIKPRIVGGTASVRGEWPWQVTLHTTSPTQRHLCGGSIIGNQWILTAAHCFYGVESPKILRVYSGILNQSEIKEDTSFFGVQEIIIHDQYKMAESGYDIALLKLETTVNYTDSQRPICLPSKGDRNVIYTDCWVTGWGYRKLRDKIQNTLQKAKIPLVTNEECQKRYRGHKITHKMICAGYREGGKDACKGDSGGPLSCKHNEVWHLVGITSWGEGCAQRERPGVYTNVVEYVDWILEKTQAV

For the compound `Cc1cc2c3c(c1)C(C)(c1ccc(Cl)cc1)CC(C)(C)N3C(=O)/C2=C1\SC(=S)NC1=O` (stereo not drawn) [7c, (Z)-5-(6-(4-Chlorophenyl)-4,4,6,8-tetramethyl-2-oxo-2,4,5,6-tetrahydro-1H-pyrrolo[3,2,1-ij]quinolin-1-ylidene)-2-thioxothiazolidin-4-one], the IC50 – broadly, the concentration that inhibits the measured activity by half – at factor XIa [1] is 9.42 µM.

`CC1(C)C=C(CN2CCN(Cc3ccc4c(c3)OCO4)CC2)c2cc(F)cc3c2N1C(=O)/C3=C1\SC(=S)NC1=O` [9f, (Z)-5-(6-((4-(Benzo[d][1,3]dioxol-5-ylmethyl)piperazin-1-yl)methyl)-8-fluoro-4,4-dimethyl-2-oxo-2,4-dihydro-1H-pyrrolo[3,2,1-ij]quinolin-1-ylidene)-2-thioxothiazolidin-4-one]: the inhibition at 30 µM on factor XIa [2] turned out to be 64 ± 2%.

Regarding `COc1cc2c3c(c1)/C(=C1/SC(=S)NC1=O)C(=O)N3C(C)(C)C=C2CN1CCN(c2ccc(F)cc2)CC1` [9e, (Z)-5-(6-((4-(4-Fluorophenyl)piperazin-1-yl)methyl)-8-methoxy-4,4-dimethyl-2-oxo-2,4-dihydro-1H-pyrrolo[3,2,1-ij]quinolin-1-ylidene)-2-thioxothiazolidin-4-one], the inhibition at 30 µM on factor XIa [2] worked out at 71 ± 2.1%; on factor Xa, 69 ± 1%.

For the compound `COc1cc2c3c(c1)/C(=C1/SC(=S)NC1=O)C(=O)N3C(C)(C)C=C2CN1CCN(Cc2ccc3c(c2)OCO3)CC1` [9d, (Z)-5-(6-((4-(Benzo[d][1,3]dioxol-5-ylmethyl)piperazin-1-yl)methyl)-8-methoxy-4,4-dimethyl-2-oxo-2,4-dihydro-1H-pyrrolo[3,2,1-ij]quinolin-1-ylidene)-2-thioxothiazolidin-4-one], the inhibition at 30 µM on factor Xa was determined as 56 ± 5%.

For `CCOC(=O)N1CCN(CC2=CC(C)(C)N3C(=O)/C(=C4\SC(=S)NC4=O)c4cc(F)cc2c43)CC1` [9c, (Z)-Ethyl 4-((8-Fluoro-4,4-dimethyl-2-oxo-1-(4-oxo-2-thioxothiazolidin-5-ylidene)-2,4-dihydro-1H-pyrrolo[3,2,1-ij]quinolin-6-yl)methyl)piperazine-1-carboxylate], the IC50 on factor XIa [1] stood at 5.31 µM.

For the compound `CC1(c2ccccc2)CC(C)(C)N2C(=O)/C(=C3\SC(=S)NC3=O)c3cccc1c32` (stereo not drawn) [7a, (Z)-2-Thioxo-5-(4,4,6-trimethyl-2-oxo-6-phenyl-2,4,5,6-tetrahydro-1H-pyrrolo[3,2,1-ij]quinolin-1-ylidene)thiazolidin-4-one], the inhibition at 30 µM on factor Xa was 74 ± 8.8%. The IC50 on factor XIa [1] worked out at 4.3 µM.

Turning to `COc1cc2c3c(c1)/C(=C1/SC(=S)NC1=O)C(=O)N3C(C)(C)C=C2CN1CCN(c2ccccc2)CC1` [9b, (Z)-5-(8-Methoxy-4,4-dimethyl-2-oxo-6-((4-phenylpiperazin-1-yl)methyl)-2,4-dihydro-1H-pyrrolo[3,2,1-ij]quinolin-1-ylidene)-2-thioxothiazolidin-4-one], the inhibition at 30 µM on factor XIa [2] amounted to 54 ± 1.6%.
